Biological target: CDK-2 (Homo sapiens, UniProt P24941)
Experiment: CDK-2 inhibition, fluorescence polarization displacement assay
Experimental: Binding assays were performed in a 384 well Costar NBS coated plate. […] The concentration of BMS-Alexa Fluor647 was 50 nM. Serial dilutions of compounds were added to 12 wells. The final buffer concentration was 10 mM Hepes, pH 7.5, 150 mM NaCl, and 1 mM DTT. Samples were incubated at room temperature for 15 minutes and then read in an Analyst HT instrument using an excitation and emission wavelength of 580 and 680 nm, respectively.

Structure (SMILES): COC(=O)[C@H](Cc1ccc(O)cc1)NC(=O)c1cc(C(=O)O)c2cc(/C=C/c3ccc(F)cc3)ccc2n1 [Compound 6]
- IC50: < 1000 nM

Structure (SMILES): COC(=O)[C@H](Cc1ccc(O)cc1)NC(=O)c1cc(C(=O)O)c2cc(CCc3ccc(C(F)(F)F)cc3)ccc2n1 [Compound 8]
- IC50: < 1000 nM

Structure (SMILES): COC(=O)[C@H](Cc1ccc(O)cc1)NC(=O)c1cc(C(=O)O)c2cc(/C=C/C(C)(C)C)ccc2n1 [Compound 11]
- IC50: < 1000 nM

Structure (SMILES): CNC(=O)[C@H](Cc1ccc(O)cc1)NC(=O)c1cc(C(=O)O)c2cc(/C=C/c3ccc(Cl)cc3)ccc2n1 [Compound 14]
- IC50: < 1000 nM

Structure (SMILES): COC[C@H](Cc1ccc(O)cc1)NC(=O)c1cc(C(=O)O)c2cc(-c3cccc(Cn4ccccc4=O)c3)ccc2n1 [Compound 26]
- IC50: < 1000 nM

Structure (SMILES): COC[C@H](Cc1ccc(O)cc1)NC(=O)c1cc(NS(=O)(=O)C(C)(C)C)c2cc(-c3cccc(COc4ccccn4)c3)ccc2n1 [Compound 27]
- IC50: < 1000 nM

Structure (SMILES): COC(=O)[C@H](Cc1ccc(O)cc1)NC(=O)c1cc(C(=O)O)c2cc(-c3cccc(C(C)C)c3)ccc2n1 [Compound 30]
- IC50: < 1000 nM

Structure (SMILES): COC(=O)[C@H](Cc1ccc(O)cc1)NC(=O)c1cc(C(=O)O)c2cc(CCc3ccc(F)cc3)ccc2n1 [Compound 31]
- IC50: < 1000 nM

Structure (SMILES): COC(=O)[C@H](Cc1ccc(O)cc1)NC(=O)c1cc(C(=O)O)c2cc(-c3cccc([N+](=O)[O-])c3)ccc2n1 [Compound 33]
- IC50: < 1000 nM

Structure (SMILES): CN(C)C(=O)[C@H](Cc1ccc(O)cc1)NC(=O)c1cc(C(=O)O)c2cc(/C=C/c3ccc(Cl)cc3)ccc2n1 [Compound 34]
- IC50: < 1000 nM

Structure (SMILES): COC(=O)[C@H](Cc1ccc(O)cc1)NC(=O)c1cc(C(=O)O)c2cc(-c3cccc(C#N)c3)ccc2n1 [Compound 36]
- IC50: < 1000 nM

Structure (SMILES): COC(=O)[C@H](Cc1ccc(O)cc1)NC(=O)c1cc(C(=O)O)c2cc(-c3cc4ccccc4o3)ccc2n1 [Compound 38]
- IC50: < 1000 nM

Structure (SMILES): COC(=O)[C@H](Cc1ccc(O)cc1)NC(=O)c1cc(C(=O)O)c2cc(-c3ccc(F)c(C)c3)ccc2n1 [Compound 41]
- IC50: < 1000 nM

Structure (SMILES): COC(=O)[C@H](Cc1ccc(O)cc1)NC(=O)c1cc(C(=O)O)c2cc(-c3cccc(-c4ccccc4)c3)ccc2n1 [Compound 42]
- IC50: < 1000 nM

Structure (SMILES): O=C(N[C@@H](Cc1ccc(O)cc1)C(=O)NC1CC1)c1cc(C(=O)O)c2cc(/C=C/c3ccc(Cl)cc3)ccc2n1 [Compound 44]
- IC50: < 1000 nM

Structure (SMILES): COC(=O)[C@H](Cc1ccc(O)cc1)NC(=O)c1cc(C(=O)O)c2cc(-c3cccc(C)c3)ccc2n1 [Compound 48]
- IC50: < 1000 nM

Structure (SMILES): COC(=O)[C@H](Cc1ccc(O)cc1)NC(=O)c1cc(C(=O)O)c2cc(-c3ccc(C)c([N+](=O)[O-])c3)ccc2n1 [Compound 49]
- IC50: < 1000 nM

Structure (SMILES): COC(=O)[C@H](Cc1ccc(O)cc1)NC(=O)c1cc(C(=O)O)c2cc(-c3ccc(F)c(Cl)c3)ccc2n1 [Compound 50]
- IC50: < 1000 nM

Structure (SMILES): COC(=O)[C@H](Cc1ccc(O)cc1)NC(=O)c1cc(C(=O)O)c2cc(-c3ccc(Oc4ccccc4)cc3)ccc2n1 [Compound 51]
- IC50: < 1000 nM

Structure (SMILES): COC(=O)[C@H](Cc1ccc(O)cc1)NC(=O)c1cc(C(=O)O)c2cc(CCC(C)(C)C)ccc2n1 [Compound 52]
- IC50: < 1000 nM

Structure (SMILES): CCCC(Cc1ccc(O)cc1)NC(=O)c1cc(C(=O)O)c2cc(-c3cccc(C(F)(F)F)c3)ccc2n1 (centres unmarked) [Compound 54]
- IC50: < 1000 nM

Structure (SMILES): COC(=O)[C@H](Cc1ccc(O)cc1)NC(=O)c1cc(C(=O)O)c2cc(-c3cc4ccccc4s3)ccc2n1 [Compound 58]
- IC50: < 1000 nM

Structure (SMILES): COC(=O)[C@H](Cc1ccc(O)cc1)NC(=O)c1cc(C(=O)O)c2cc(CCc3ccccc3)ccc2n1 [Compound 60]
- IC50: < 1000 nM

Structure (SMILES): O=C(NC(Cc1ccc(O)cc1)C1CCCCC1)c1cc(C(=O)O)c2cc(-c3cccc(C(F)(F)F)c3)ccc2n1 (centres unmarked) [Compound 63]
- IC50: < 1000 nM

Structure (SMILES): COC(=O)[C@H](Cc1ccc(O)cc1)NC(=O)c1cc(NS(C)(=O)=O)c2cc(-c3cccc(C(F)(F)F)c3)ccc2n1 [Compound 64]
- IC50: < 1000 nM

Structure (SMILES): COC(=O)[C@H](Cc1ccc(O)cc1)NC(=O)c1cc(C(=O)O)c2cc(-c3cc(C)cc(C)c3)ccc2n1 [Compound 67]
- IC50: < 1000 nM

Structure (SMILES): COC(=O)[C@H](Cc1ccc(O)cc1)NC(=O)c1cc(C(=O)O)c2cc(-c3ccc(Cl)c(Cl)c3)ccc2n1 [Compound 69]
- IC50: < 1000 nM

Structure (SMILES): COC[C@H](Cc1ccc(O)cc1)NC(=O)c1cc(S(=O)(=O)O)c2cc(-c3cccc(C(F)(F)F)c3)ccc2n1 [Compound 71]
- IC50: < 1000 nM

Structure (SMILES): COC(=O)[C@H](Cc1ccc(O)cc1)NC(=O)c1cc(C(=O)O)c2cc(-c3ccc(C(C)C)cc3)ccc2n1 [Compound 72]
- IC50: < 1000 nM

Structure (SMILES): COC(=O)[C@H](Cc1ccc(O)cc1)NC(=O)c1cc(C(=O)O)c2cc(-c3ccc(OC)cc3)ccc2n1 [Compound 76]
- IC50: < 1000 nM

Structure (SMILES): COC(=O)[C@H](Cc1ccc(O)cc1)NC(=O)c1cc(C(=O)O)c2cc(-c3cccs3)ccc2n1 [Compound 81]
- IC50: < 1000 nM

Structure (SMILES): COC(=O)[C@H](Cc1ccc(O)cc1)NC(=O)c1cc(C(=O)O)c2cc(-c3ccc(C)s3)ccc2n1 [Compound 82]
- IC50: < 1000 nM

Structure (SMILES): COC(=O)[C@H](Cc1ccc(O)cc1)NC(=O)c1cc(C(=O)O)c2cc(-c3ccc(Cl)cc3)ccc2n1 [Compound 83]
- IC50: < 1000 nM

Structure (SMILES): O=C(N[C@@H](Cc1ccc(O)cc1)c1ncc[nH]1)c1cc(C(=O)O)c2cc(-c3cccc(C(F)(F)F)c3)ccc2n1 [Compound 86]
- IC50: < 1000 nM

Structure (SMILES): COC[C@H](Cc1ccc(O)cc1)NC(=O)c1cc(-c2nnn[nH]2)c2cc(-c3cccc(C(F)(F)F)c3)ccc2n1 [Compound 87]
- IC50: < 1000 nM

Structure (SMILES): COC(=O)[C@H](Cc1ccc(O)cc1)NC(=O)c1cc(C(=O)O)c2cc(-c3cccc(OC)c3)ccc2n1 [Compound 91]
- IC50: 1000 to 40000 nM

Structure (SMILES): COC(=O)[C@H](Cc1ccc(O)cc1)NC(=O)c1cc(C(=O)O)c2cc(-c3ccc(Cl)c(F)c3)ccc2n1 [Compound 92]
- IC50: 1000 to 40000 nM

Structure (SMILES): COC(=O)[C@H](Cc1ccc(O)cc1)NC(=O)c1cc(C(=O)O)c2cc(-c3cccc(F)c3)ccc2n1 [Compound 93]
- IC50: 1000 to 40000 nM

Structure (SMILES): COC[C@H](Cc1ccc(O)cc1)NC(=O)c1cc(C(=O)NS(C)(=O)=O)c2cc(-c3cccc(C(F)(F)F)c3)ccc2n1 [Compound 95]
- IC50: 1000 to 40000 nM

Structure (SMILES): NC[C@H](Cc1ccc(O)cc1)NC(=O)c1cc(C(=O)O)c2cc(CCc3ccc(Cl)cc3)ccc2n1 [Compound 97]
- IC50: 1000 to 40000 nM

Structure (SMILES): COC[C@H](Cc1ccc(O)cc1)NC(=O)c1cc(NS(=O)(=O)C(C)(C)C)c2cc(-c3cccc(COc4cccc[n+]4[O-])c3)ccc2n1 [Compound 98]
- IC50: 1000 to 40000 nM

Structure (SMILES): O=C(N[C@@H](Cc1ccc(O)cc1)c1cnco1)c1cc(C(=O)O)c2cc(-c3cccc(C(F)(F)F)c3)ccc2n1 [Compound 99]
- IC50: 1000 to 40000 nM

Structure (SMILES): COC(=O)[C@H](Cc1ccc(O)cc1)NC(=O)c1cc(C(=O)O)c2cc(-c3ccc(C)cc3)ccc2n1 [Compound 103]
- IC50: 1000 to 40000 nM

Structure (SMILES): COC(=O)[C@H](Cc1ccc(O)cc1)NC(=O)c1cc(C(=O)O)c2cc(-c3cccc(C(C)=O)c3)ccc2n1 [Compound 104]
- IC50: 1000 to 40000 nM

Structure (SMILES): COC(=O)[C@H](Cc1ccc(O)cc1)NC(=O)c1cc(C(=O)O)c2cc(-c3ccc(N(C)C)cc3)ccc2n1 [Compound 107]
- IC50: 1000 to 40000 nM

Structure (SMILES): CC(Cc1ccc(O)cc1)NC(=O)c1cc(C(=O)O)c2cc(-c3cccc(C(F)(F)F)c3)ccc2n1 (centres unmarked) [Compound 110]
- IC50: 1000 to 40000 nM

Structure (SMILES): COC(=O)[C@H](Cc1ccc(O)cc1)NC(=O)c1cc(C(=O)O)c2cc(-c3cc(C(F)(F)F)cc(C(F)(F)F)c3)ccc2n1 [Compound 112]
- IC50: 1000 to 40000 nM
